Consider ten compounds from patent EP0326331B1, “Substituted quinolines and cinnolines” (Dow AgroSciences LLC, priority 1988, dated 1989).

What all share (assay type): in vivo
In assay [1] the test system is Botrytis cinerea (gray mold). The experiment in a line: Test 1 greenhouse foliar spray screen, gray mold on grape berries. Conditions: disease control rating, spray on grape berries, 400 ppm (+++ at 100 ppm).
The next assay has as its system corn rootworm. The experiment in a line: Mite/insect screen, CRW. To be noted: percent mortality, read-out: CRW RESULTS %; for mortality at 12 ppm: CRW RATE 12.00 PPM; for mortality at 24 ppm: CRW RATE 24.00 PPM. The gist of the method: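 Following dissolution in equal parts acetone and alcohol with 23 g/L and 13 g/L emulsifier blends and dilution with water, test solutions were scored for percent mortality at the end of standard exposures.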

Assay [2] deals with Pseudoperonospora cubensis (downy mildew). The experiment in a line: Test 1 greenhouse foliar spray screen, downy mildew on squash. Conditions: disease control rating, foliar spray on squash, 400 ppm (+++ at 100 ppm).
Assay [3] has as its system Twospotted spider mites (Tetranychus urticae Koch). The experiment in a line: Mite/insect screen, SM. To be noted: for mortality at 200 ppm / mortality at 400 ppm: Tetranychus urticae, percent mortality, SAW, read-out: SM RESULTS %; for mortality at 200 ppm: SM & MA RATE 200 PPM; for mortality at 400 ppm: SM & MA RATE 400 PPM. An outline of the steps:
(§1)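 Foliar spray to runoff (10 psi), 1 h drying; aqueous dilutions from acetone/alcohol emulsifier stock. Mortality (%) after standard exposure.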

Assay [4] deals with Pyricularia oryzae (rice blast). Put plainly: whole plant or invertebrate. To be noted: disease control rating, foliar spray on rice, 400 ppm (+++ at 100 ppm).
Assay [5] relates to Erysiphe graminis tritici (powdery mildew). Put plainly: Test 1 greenhouse foliar spray screen, powdery mildew on wheat. To be noted: disease control rating, foliar spray on wheat, 400 ppm (+++ at 100 ppm).
In assay [6] the test system is southern armyworm (Spodopetra eridania Cramer). The experiment in a line: Mite/insect screen, SAW. To be noted: Spodoptera eridania, percent mortality, SAW, read-out: SAW RESULTS %; for mortality at 200 ppm: SM & MA RATE 200 PPM; for mortality at 400 ppm: SM & MA RATE 400 PPM. The gist of the method: as §1
Assay [7] deals with Puccinia recondita tritici (leaf rust). Put plainly: Test 1 greenhouse foliar spray screen, leaf rust on wheat. To be noted: disease control rating, foliar spray on wheat, 400 ppm (+++ at 100 ppm).
Assay [8] relates to melon aphids (Aphis gossypii Glover). The experiment in a line: Mite/insect screen, MA. Conditions: Aphis gossypii, percent mortality, SAW, read-out: MA RESULTS %; for mortality at 200 ppm: SM & MA RATE 200 PPM; for mortality at 400 ppm: SM & MA RATE 400 PPM. The gist of the method: as §1

For the compound `CC(=O)N(CCc1c(C)c(C)c(C)c(C)c1C)c1ccnc2c(F)cccc12` [Example 131, N-[2-(pentamethylphenyl)ethyl]-N-(8-fluoro-4-quinolinyl)acetamide], in assay [1], the “GRAY MOLD” value is “- (0-19% control at 400 ppm)”. Besides, in the assay on corn rootworm, the mortality at 12 ppm came to 0% and the mortality at 24 ppm stood at 0%. The “DOWN MDEW” value in assay [2] is on record as “+ (20-89% control at 400 ppm)”. In assay [3], the mortality at 200 ppm came to 0% and the mortality at 400 ppm is 0%. Besides, the “RICE BLAST” value in [4] is reported as “- (0-19% control at 400 ppm)”. For the same compound, the “POWD MDEW” value in [5] is recorded as “- (0-19% control at 400 ppm)”. Besides, in [6], the mortality at 200 ppm amounted to 0% and the mortality at 400 ppm was 0%. Besides, the “LEAF RUST” value in assay [7] is listed as “- (0-19% control at 400 ppm)”. In addition, in assay [8], the mortality at 200 ppm worked out at 0% and the mortality at 400 ppm was 0%.
Consider `CC(=O)N(CCc1ccccc1Cl)c1ccnc2c(Cl)cccc12` [Example 132, N-[2-(2-chlorophenyl)ethyl]-N-(8-chloro-4-quinolinyl)acetamide], for which the “GRAY MOLD” value in [1] is on record as “- (0-19% control at 400 ppm)”. Also, in the assay on corn rootworm, the mortality at 12 ppm amounted to 0% and the mortality at 24 ppm came to 0%. The “DOWN MDEW” value in [2] was “- (0-19% control at 400 ppm)”. In assay [3], the mortality at 200 ppm came out at 0% and the mortality at 400 ppm is 0%. In addition, the “RICE BLAST” value in assay [4] is recorded as “- (0-19% control at 400 ppm)”. In addition, the “POWD MDEW” value in [5] is recorded as “- (0-19% control at 400 ppm)”. For the same compound, in assay [6], the mortality at 200 ppm was 0% and the mortality at 400 ppm came to 0%. In addition, the “LEAF RUST” value in assay [7] is listed as “- (0-19% control at 400 ppm)”. Also, in [8], the mortality at 200 ppm worked out at 0% and the mortality at 400 ppm amounted to 0%.
Consider `COc1ccc(CCNc2ccnc3c(C)c(C)ccc23)cc1` [Example 133, N-[2-(4-methoxyphenyl)ethyl]-7,8-dimethyl-4-quinolinamine], for which the “GRAY MOLD” value in [1] is recorded as “- (0-19% control at 400 ppm)”. Also, in the assay with corn rootworm, the mortality at 12 ppm came to 0% and the mortality at 24 ppm amounted to 0%. In [2], the “DOWN MDEW” value is “+ (20-89% control at 400 ppm)”. In assay [3], the mortality at 200 ppm was 0% and the mortality at 400 ppm turned out to be 0%. Moreover, the “RICE BLAST” value in [4] was “+ (20-89% control at 400 ppm)”. In assay [5], the “POWD MDEW” value is “- (0-19% control at 400 ppm)”. In assay [6], the mortality at 200 ppm came out at 0% and the mortality at 400 ppm amounted to 0%. For the same compound, the “LEAF RUST” value in [7] is “+ (20-89% control at 400 ppm)”. Further, in [8], the mortality at 200 ppm was 0% and the mortality at 400 ppm was determined as 0%.
In the case of `Clc1ccc2c(NCCCc3ccc(-c4ccccc4)cc3)ccnc2c1` [Example 134, 7-chloro-N-[3-(1,1'-biphenyl)-4-ylpropyl]-4-quinolinamine], the “GRAY MOLD” value in [1] is given as “- (0-19% control at 400 ppm)”. Besides, the mortality at 24 ppm in the assay with corn rootworm was found to be 0%. Besides, the “DOWN MDEW” value in [2] is “+++ (90-100% control at 100 ppm)”. In addition, the mortality at 400 ppm in [3], in assay [6] and in [8] was 0% throughout. Also, the “RICE BLAST” value in [4] is given as “++ (90-100% control at 400 ppm)”. In addition, the “POWD MDEW” value in [5] is reported as “+ (20-89% control at 400 ppm)”. The “LEAF RUST” value in assay [7] is on record as “+ (20-89% control at 400 ppm)”.
For `Fc1cccc2c(NCCCc3ccc(-c4ccccc4)cc3)ccnc12` [Example 137, N-[3-(1,1'-biphenyl)-4-ylpropyl]-8-fluoro-4-quinolinamine], the “GRAY MOLD” value in assay [1] is listed as “- (0-19% control at 400 ppm)”. The mortality at 24 ppm with corn rootworm worked out at 0%. In addition, the “DOWN MDEW” value in assay [2] is reported as “+++ (90-100% control at 100 ppm)”. Moreover, the mortality at 400 ppm stood at 80% in [3], 100% in assay [6] and 80% in [8]. The activity as miticides result in assay [3] (summary statement in the description) is reported as “particularly excellent activity”. In assay [4], the “RICE BLAST” value is “+++ (90-100% control at 100 ppm)”. Also, in assay [5], the “POWD MDEW” value was “+ (20-89% control at 400 ppm)”. Also, the “LEAF RUST” value in assay [7] is given as “+ (20-89% control at 400 ppm)”.
Regarding `CC(CCc1ccccc1)Nc1ccnc2c(F)cccc12` (stereo not shown) [Example 138, 8-fluoro-N-(1-methyl-3-phenylpropyl)-4-quinolinamine], in [1], the “GRAY MOLD” value is listed as “- (0-19% control at 400 ppm)”. Moreover, in the assay with corn rootworm, the mortality at 24 ppm was found to be 0%. Further, the “DOWN MDEW” value in assay [2] is reported as “+++ (90-100% control at 100 ppm)”. Also, the mortality at 400 ppm in assay [3], in [6] and in assay [8] was 0% each time. Besides, in assay [4], the “RICE BLAST” value is on record as “+ (20-89% control at 400 ppm)”. For the same compound, in assay [5], the “POWD MDEW” value is reported as “- (0-19% control at 400 ppm)”. For the same compound, in assay [7], the “LEAF RUST” value is “+ (20-89% control at 400 ppm)”.
On to `CC(=O)N(CCCCc1ccc(Cl)cc1)c1ccnc2c(F)cccc12` [Example 141, N-[4-(4-chlorophenyl)butyl]-N-(8-fluoro-4-quinolinyl)acetamide], for which the “GRAY MOLD” value in assay [1] is reported as “- (0-19% control at 400 ppm)”. For the same compound, in the assay with corn rootworm, the mortality at 12 ppm is 0% and the mortality at 24 ppm turned out to be 0%. Further, the “DOWN MDEW” value in assay [2] is “+ (20-89% control at 400 ppm)”. Besides, in assay [3], the mortality at 200 ppm was found to be 0% and the mortality at 400 ppm turned out to be 0%. The “RICE BLAST” value in assay [4] is “++ (90-100% control at 400 ppm)”. For the same compound, the “POWD MDEW” value in assay [5] is on record as “- (0-19% control at 400 ppm)”. Also, in assay [6], the mortality at 200 ppm was 0% and the mortality at 400 ppm stood at 0%. Besides, the “LEAF RUST” value in [7] was “+ (20-89% control at 400 ppm)”. In addition, in [8], the mortality at 200 ppm is 0% and the mortality at 400 ppm was found to be 0%.
As to `Cc1ccc(C)c2c(NCCC3=CCCCC3)ccnc12` [Example 142, N-[2-(1-cyclohexenyl)ethyl]-5,8-dimethyl-4-quinolinamine], the “GRAY MOLD” value in assay [1] is given as “- (0-19% control at 400 ppm)”. Besides, in the assay on corn rootworm, the mortality at 12 ppm worked out at 0% and the mortality at 24 ppm was 0%. Besides, in [2], the “DOWN MDEW” value was “+++ (90-100% control at 100 ppm)”. Further, in assay [3], the mortality at 200 ppm worked out at 0% and the mortality at 400 ppm came out at 0%. Also, the “RICE BLAST” value in assay [4] is given as “++ (90-100% control at 400 ppm)”. In assay [5], the “POWD MDEW” value is reported as “- (0-19% control at 400 ppm)”. Besides, in assay [6], the mortality at 200 ppm was 0% and the mortality at 400 ppm was determined as 0%. Also, the “LEAF RUST” value in assay [7] is recorded as “++ (90-100% control at 400 ppm)”. Also, in [8], the mortality at 200 ppm was 0% and the mortality at 400 ppm was 0%.
Turning to `CC(=O)N(CCC1=CCCCC1)c1ccnc2ccc(F)cc12` [Example 146, N-[2-(1-cyclohexenyl)ethyl]-N-(6-fluoro-4-quinolinyl)acetamide], the “GRAY MOLD” value in [1] is on record as “- (0-19% control at 400 ppm)”. Also, in the assay with corn rootworm, the mortality at 12 ppm was 0% and the mortality at 24 ppm was 0%. The “DOWN MDEW” value in [2] is “+ (20-89% control at 400 ppm)”. Moreover, in [3], the mortality at 200 ppm amounted to 0% and the mortality at 400 ppm was 0%. The “RICE BLAST” value in [4] is recorded as “- (0-19% control at 400 ppm)”. For the same compound, the “POWD MDEW” value in assay [5] is recorded as “- (0-19% control at 400 ppm)”. For the same compound, in assay [6], the mortality at 200 ppm turned out to be 0% and the mortality at 400 ppm was determined as 0%. Also, in assay [7], the “LEAF RUST” value was “- (0-19% control at 400 ppm)”. Further, in assay [8], the mortality at 200 ppm was 0% and the mortality at 400 ppm came to 0%.
Consider `OC(CNc1ccnc2c(F)cccc12)c1ccc2ccccc2c1` (stereo not drawn) [Example 157, α-[[(8-fluoro-4-quinolinyl)amino]methyl]-2-naphthalenemethanol], for which the “GRAY MOLD” value in [1] is “- (0-19% control at 400 ppm)”. Moreover, the mortality at 24 ppm with corn rootworm came to 0%. Moreover, in assay [2], the “DOWN MDEW” value is “+++ (90-100% control at 100 ppm)”. The mortality at 400 ppm turned out to be 80% in assay [3], 100% in assay [6] and 0% in assay [8]. Further, the “RICE BLAST” value in [4] is given as “++ (90-100% control at 400 ppm)”. Further, the “POWD MDEW” value in [5] was “- (0-19% control at 400 ppm)”. In addition, in assay [7], the “LEAF RUST” value was “++ (90-100% control at 400 ppm)”.
